What was measured:
[1] = system: lymphocytic leukemia P388; experiment: Lymphocytic leukemia P388 test (intraperitoneal administration); format: in vivo, DBA/2 mice; settings: days 1, 5 and 9
Protocol: The animals used are DBA/2 mice all of one sex, weighing a minimum of 17 g. and all within a 3 gram weight range. There are 5 or 6 animals per test group. The tumor transplant is by intraperitoneal injection of 0.1 ml. of dilute ascitic fluid containing 10^6 cells of lymphocytic leukemia P388. The test compounds are administered intraperitoneally on days one, 5 and 9 (relative to tumor inoculation) at various doses. The animals are weighed and survivors are recorded on a regular basis for 30 days. The median survival time and the ratio of survival time for treated (T)/control (C) animals are calculated.

[2] = system: melanotic melanoma B16; experiment: Melanotic Melanoma B16 test; format: in vivo, C57BC/6 mice; settings: days 1 through 9
Protocol: The animals used are C57BC/6 mice, all of the same sex, weighing a minimum of 17 g. and all within a 3-g. weight range. There are normally 10 animals per test group. A one-gram portion of melanotic melanoma B16 tumor is homogenized in 10 ml. of cold balanced salt solution and a 0.5-ml. aliquot of the homogenate is implanted intraperitoneally into each of the test mice. The test compounds are administered intraperitoneally on days one through 9 (relative to tumor inoculation) at various doses. The animals are weighed and survivors are recorded on a regular basis for 60 days. The median survival time and the ratio of survival time for treated (T)/control (C) animals are calculated. […] The criterion for efficacy is T/C×100≥125%.

[3] = Mus musculus, P388, ip, 25 mg./kg. i.p., efficacy ≥125%, read-out: T/C × 100
[4] = Mus musculus, ip, 6 mg./kg. i.p., efficacy ≥125%, read-out: T/C × 100
[5] = Mus musculus, P388, ip, 0.19 mg./kg. i.p., efficacy ≥125%, read-out: T/C × 100
[6] = Mus musculus, P388, ip, 0.04 mg./kg. i.p., efficacy ≥125%, read-out: T/C × 100
[7] = Mus musculus, P388, ip, 0.09 mg./kg. i.p., efficacy ≥125%, read-out: T/C × 100
[8] = Mus musculus, P388, ip, 0.39 mg./kg. i.p., efficacy ≥125%, read-out: T/C × 100
[9] = Mus musculus, P388, ip, 0.78 mg./kg. i.p., efficacy ≥125%, read-out: T/C × 100
[10] = Mus musculus, P388, ip, 1.5 mg./kg. i.p., efficacy ≥125%, read-out: T/C × 100
[11] = Mus musculus, P388, ip, 3.1 mg./kg. i.p., efficacy ≥125%, read-out: T/C × 100
[12] = Mus musculus, P388, ip, 6.2 mg./kg. i.p., efficacy ≥125%, read-out: T/C × 100
[13] = Mus musculus, P388, ip, 12.5 mg./kg. i.p., efficacy ≥125%, read-out: T/C × 100
[14] = Mus musculus, ip, 1.5 mg./kg. i.p., efficacy ≥125%, read-out: T/C × 100

NCCCNC1=C2C(=O)c3c(O)ccc(O)c3C(=O)C2=C(NCCCN)CC1 [Leuco-1,4-bis(3-aminopropylamino)-5,8-dihydroxyanthraquinone]
Median Survival Time ([1]; 12 mg./kg. i.p.): 16.0 days
Median Survival Time ([1]; 25 mg./kg. i.p.): 18.0 days
Median Survival Time ([1]; 50 mg./kg. i.p.): 16.0 days
Median Survival Time ([1]; 100 mg./kg. i.p.): 18.0 days
Median Survival Time ([1]; 200 mg./kg. i.p.): 18.0 days
response vs control in vivo at 12 mg/kg ([1]; Mus musculus, P388, ip, 12 mg./kg. i.p., efficacy ≥125%, read-out: T/C × 100): 133%
response vs control in vivo at 25 mg/kg [1, 3]: 150%
response vs control in vivo at 50 mg/kg ([1]; Mus musculus, P388, ip, 50 mg./kg. i.p., efficacy ≥125%, read-out: T/C × 100): 133%
response vs control in vivo at 100 mg/kg ([1]; Mus musculus, P388, ip, 100 mg./kg. i.p., efficacy ≥125%, read-out: T/C × 100): 150%
response vs control in vivo at 200 mg/kg ([1]; Mus musculus, P388, ip, 200 mg./kg. i.p., efficacy ≥125%, read-out: T/C × 100): 150%
Median Survival Time ([2]; 6 mg./kg. i.p.): 22.5 days
Median Survival Time ([2]; 12 mg./kg. i.p.): 23.5 days
Median Survival Time ([2]; 25 mg./kg. i.p.): 27.0 days
Median Survival Time ([2]; 50 mg./kg. i.p.): 31.5 days
response vs control in vivo at 6 mg/kg [2, 4]: 141%
response vs control in vivo at 12 mg/kg ([2]; Mus musculus, ip, 12 mg./kg. i.p., efficacy ≥125%, read-out: T/C × 100): 147%
response vs control in vivo at 25 mg/kg ([2]; Mus musculus, ip, 25 mg./kg. i.p., efficacy ≥125%, read-out: T/C × 100): 169%
response vs control in vivo at 50 mg/kg ([2]; Mus musculus, ip, 50 mg./kg. i.p., efficacy ≥125%, read-out: T/C × 100): 197%

CNCCNc1ccc(NCCNC)c2c1C(=O)c1c(O)ccc(O)c1C2=O.Cl.Cl [1,4-Bis[2-(methylamino)ethylamino]-5,8-dihydroxyanthraquinone dihydrochloride]
Median Survival Time ([1]; 0.04 mg./kg. i.p.): 17.0 days
Median Survival Time ([1]; 0.09 mg./kg. i.p.): 18.0 days
Median Survival Time ([1]; 0.19 mg./kg. i.p.): 18.5 days
Median Survival Time ([1]; 0.39 mg./kg. i.p.): 19.5 days
Median Survival Time ([1]; 0.78 mg./kg. i.p.): 18.5 days
Median Survival Time ([1]; 1.5 mg./kg. i.p.): 22.5 days
Median Survival Time ([1]; 3.1 mg./kg. i.p.): 22.0 days
Median Survival Time ([1]; 6.2 mg./kg. i.p.): 20.0 days
Median Survival Time ([1]; 12.5 mg./kg. i.p.): 16.0 days
Median Survival Time ([1]; 25 mg./kg. i.p.): 9.0 days
response vs control in vivo at 0.19 mg/kg [1, 5]: 176%
response vs control in vivo at 0.04 mg/kg [1, 6]: 162%
response vs control in vivo at 0.09 mg/kg [1, 7]: 171%
response vs control in vivo at 0.39 mg/kg [1, 8]: 186%
response vs control in vivo at 0.78 mg/kg [1, 9]: 176%
response vs control in vivo at 1.5 mg/kg [1, 10]: 214%
response vs control in vivo at 3.1 mg/kg [1, 11]: 210%
response vs control in vivo at 6.2 mg/kg [1, 12]: 190%
response vs control in vivo at 12.5 mg/kg [1, 13]: 152%
response vs control in vivo at 25 mg/kg [1, 3]: 86%
Median Survival Time ([2]; 0.19 mg./kg. i.p.): 29.5 days
Median Survival Time ([2]; 0.39 mg./kg. i.p.): 25.0 days
Median Survival Time ([2]; 0.78 mg./kg. i.p.): 35.0 days
Median Survival Time ([2]; 1.5 mg./kg. i.p.): 33.0 days
Median Survival Time ([2]; 3.1 mg./kg. i.p.): 49.0 days
Median Survival Time ([2]; 6.2 mg./kg. i.p.): 26.5 days
Median Survival Time ([2]; 12.5 mg./kg. i.p.): 11.5 days
response vs control in vivo at 0.19 mg/kg ([2]; Mus musculus, ip, 0.19 mg./kg. i.p., efficacy ≥125%, read-out: T/C × 100): 151%
response vs control in vivo at 0.39 mg/kg ([2]; Mus musculus, ip, 0.39 mg./kg. i.p., efficacy ≥125%, read-out: T/C × 100): 128%
response vs control in vivo at 0.78 mg/kg ([2]; Mus musculus, ip, 0.78 mg./kg. i.p., efficacy ≥125%, read-out: T/C × 100): 179%
response vs control in vivo at 1.5 mg/kg [2, 14]: 169%
response vs control in vivo at 3.1 mg/kg ([2]; Mus musculus, ip, 3.1 mg./kg. i.p., efficacy ≥125%, read-out: T/C × 100): 251%
response vs control in vivo at 6.2 mg/kg ([2]; Mus musculus, ip, 6.2 mg./kg. i.p., efficacy ≥125%, read-out: T/C × 100): 136%
response vs control in vivo at 12.5 mg/kg ([2]; Mus musculus, ip, 12.5 mg./kg. i.p., efficacy ≥125%, read-out: T/C × 100): 59%

O=C1C2=C(NCCNCCO)CCC(NCCNCCO)=C2C(=O)c2c(O)ccc(O)c21 [Leuco-1,4-bis[2-(2-hydroxyethylamino)ethylamino]-5,8-dihydroxyanthraquinone]
Median Survival Time ([1]; 0.04 mg./kg. i.p.): 18.5 days
Median Survival Time ([1]; 0.09 mg./kg. i.p.): 21.5 days
Median Survival Time ([1]; 0.19 mg./kg. i.p.): 21.5 days
Median Survival Time ([1]; 0.39 mg./kg. i.p.): 22.0 days
Median Survival Time ([1]; 0.78 mg./kg. i.p.): 28.0 days
Median Survival Time ([1]; 1.5 mg./kg. i.p.): > 30.0 days
Median Survival Time ([1]; 3.1 mg./kg. i.p.): 26.0 days
Median Survival Time ([1]; 6.2 mg./kg. i.p.): 23.0 days
Median Survival Time ([1]; 12.5 mg./kg. i.p.): 23.5 days
Median Survival Time ([1]; 25 mg./kg. i.p.): 12.0 days
response vs control in vivo at 0.19 mg/kg [1, 5]: 205%
response vs control in vivo at 0.04 mg/kg [1, 6]: 176%
response vs control in vivo at 0.09 mg/kg [1, 7]: 205%
response vs control in vivo at 0.39 mg/kg [1, 8]: 209%
response vs control in vivo at 0.78 mg/kg [1, 9]: 267%
response vs control in vivo at 1.5 mg/kg [1, 10]: > 286%
response vs control in vivo at 3.1 mg/kg [1, 11]: 248%
response vs control in vivo at 6.2 mg/kg [1, 12]: 219%
response vs control in vivo at 12.5 mg/kg [1, 13]: 224%
response vs control in vivo at 25 mg/kg [1, 3]: 114%
Median Survival Time ([2]; 0.37 mg./kg. i.p.): 22.0 days
Median Survival Time ([2]; 0.75 mg./kg. i.p.): 28.5 days
Median Survival Time ([2]; 1.5 mg./kg. i.p.): 30.0 days
Median Survival Time ([2]; 3 mg./kg. i.p.): 20.5 days
Median Survival Time ([2]; 6 mg./kg. i.p.): 9.5 days
response vs control in vivo at 0.37 mg/kg ([2]; Mus musculus, ip, 0.37 mg./kg. i.p., efficacy ≥125%, read-out: T/C × 100): 137%
response vs control in vivo at 0.75 mg/kg ([2]; Mus musculus, ip, 0.75 mg./kg. i.p., efficacy ≥125%, read-out: T/C × 100): 178%
response vs control in vivo at 1.5 mg/kg [2, 14]: 187%
response vs control in vivo at 3 mg/kg ([2]; Mus musculus, ip, 3 mg./kg. i.p., efficacy ≥125%, read-out: T/C × 100): 128%
response vs control in vivo at 6 mg/kg [2, 4]: 59%

From US4526989A, “1,4-Bis (substituted-amino)-5,8-dihydroxy-anthraquinones and leuco bases thereof” (priority 1979, dated 1985)
